# In patent publication US20180263985A1, “MODULATORS OF TOLL-LIKE RECEPTORS FOR THE TREATMENT OF HIV” (Gilead Sciences, Inc., priority 2015, published 2018):
# “And” between values parts separate entries of the source, which are not always exact repeats. Equal entries are not always repeated.
# How the values were obtained:
# Format in all cases: cell-based, human
# [1] = tested on: PBMC cultures from HIV-1 infected subjects on cART; experiment: Induced HIV-1 expression in PBMC cultures, HIV-1 RNA in supernatant after 4 days (COBAS TaqMan HIV-1 Test); conditions: for Geometric Mean with ≥2-Fold-Activation / Range with ≥2-Fold-Activation: N = 12; for N with ≥2-Fold-Activation: subjects; for Fold HIV-1 Activation: vs DMSO
# Experimental: In some experiments, IL-15, the TLR8 modulating compound of Example 15 or the combination of IL-15 and Example 15 were used at the indicated concentrations (Table 4). The cultures were maintained in the presence of antivirals (elvitegravir and efavirenz at 100 nM each) to prevent viral spread and amplification in order to measure the quantity of virus produced (latency reversal) by the TLR8 modulating compounds. At the end of the incubation period, cell-free culture supernatants were harvested and HIV-1 RNA levels were quantified by the COBAS® AmpliPrep/COBAS®TaqMan HIV-1 Test, v2.0 (Roche).
# In each table, fold-activation is calculated as a ratio of HIV-1 RNA copies per ml of cell culture supernatants from TLR8 agonist treated samples and DMSO treated controls. Geometric mean fold-activation from three independent incubation samples for each condition of each subject's PBMCs. Values in bold indicate ≥2-fold HIV activation.
# To assess if the latency reversal induced by TLR8 agonism could further potentiate latency reversal by a separate mechanisms, we treated cells as described above with IL-15, Example 15, or a combination of IL-15 and Example 15 (Table 4).
# B Cells = experiment: Immune cell activation in PBMC cultures, flow cytometry: B cells; conditions: for B Cells CD69 Fold / B Cells CD80 Fold / B Cells CD69 % / B Cells CD80 %: 2 days, N = 4
# Experimental: (§1) TLR8 is expressed on multiple immune cell subsets. To determine how treatment with a TLR8 modulating compound affects activation of distinct cell populations, PBMCs were purified from HIV-1 infected subjects on cART, as described in Example 121 (anonymized participant IDs 184, 185, 188, 189, 190, and 191). […] After incubation, PBMCs were harvested and stained with antibodies conjugated to specific fluorophores (BD Biosciences) to delineate immune cell subsets: CD4 T cells (CD3+CD4+CD8−), CD8 T cells (CD3+CD8+CD4−), NK cells (CD3−CD56+CD16+), monocytes (CD3−CD14+), B cells (CD3−CD19+), and peripheral dendritic cells (DCs), defined as positive for HLA-DR and negative for a panel of markers: CD3, CD14, CD16, CD19, CD20, CD56 (Lin-1 lineage panel, BD Biosciences).
# (§2) Additional markers of activation, maturation, and effector function were included for cell subsets, as follows: CD4 and CD8 T cells (CD25, CD38, CD69, IFN-γ, granzyme B, perforin, TNF-α), NK cells (CD25, CD69, IFN-γ), monocytes (CD11c, CD16, CD80, CD86, CD163, TNF-α), B cells (CD40, CD69, CD80, CD86), and DC (CD11c, CD69, CD80, CD86, CD123, and CD163). Cells were stained for surface markers (CD3, CD4, CD8, CD11c, CD14, CD16, CD25, CD69, CD80, CD86, CD163), washed, treated with fixation and permeabilization buffer (eBioscience), and stained for intracellular markers (IFN-γ, granzyme B, perforin, TNF-α). Cells were evaluated by flow cytometry on a LSR Fortessa (BD Biosciences), and data was analyzed with FlowJo software (TreeStar).
# (§3) Data are expressed as geometric mean percentage (%) and as geometric mean fold-activation (Fold) for each marker and for each PBMC subset obtained from 4 or 6 subjects, as indicated. Fold activation is calculated as a ratio of the % positive for each marker for each PBMC subset at the indicated concentration of the compound of Example 15 relative to % positive for DMSO treated samples. Fold activations that are 1.5 are in bold.
# Monocytes = experiment: Immune cell activation in PBMC cultures, flow cytometry: monocytes
# Experimental: as §1, §2, §3
compound,measurement,setting,value
CCCC[C@H](CO)Nc1nc(N)nc2cccnc12 [Example 15],Subjects with ≥2-Fold-Activation (%),[1]; 10 nM,(42) %
same,Geometric Mean with ≥2-Fold-Activation,[1]; 10 nM,4.6 fold
same,Range with ≥2-Fold-Activation,[1]; 10 nM,2.2-20.1 fold
same,N with ≥2-Fold-Activation,[1]; 10 nM,5 of 12
same,Fold HIV-1 Activation,"[1]; 10 nM, one value per subject (IDs 172-183)",2.6 fold and 2.2 fold and 4.7 fold and 1.2 fold and 1.9 fold and 1.3 fold and 0.3 fold and 0.5 fold and 1.0 fold and 4.1 fold and 0.8 fold
same,Subjects with ≥2-Fold-Activation (%),[1]; 100 nM,(33) %
same,Geometric Mean with ≥2-Fold-Activation,[1]; 100 nM,4.8 fold
same,Range with ≥2-Fold-Activation,[1]; 100 nM,2.2-10.1 fold
same,N with ≥2-Fold-Activation,[1]; 100 nM,4 of 12
same,Fold HIV-1 Activation,"[1]; 100 nM, one value per subject (IDs 172-183)",3.8 fold and 6.6 fold and 2.2 fold and 1.5 fold and 1.0 fold and 0.5 fold and 0.2 fold and 0.1 fold and 0.7 fold and 1.8 fold and 1.3 fold
same,Subjects with ≥2-Fold-Activation (%),"[1]; 1,000 nM",(58) %
same,Geometric Mean with ≥2-Fold-Activation,"[1]; 1,000 nM",3.4 fold
same,Range with ≥2-Fold-Activation,"[1]; 1,000 nM",2.4-5.7 fold
same,N with ≥2-Fold-Activation,"[1]; 1,000 nM",7 of 12
same,Fold HIV-1 Activation,"[1]; 1,000 nM, one value per subject (IDs 172-183)",2.7 fold and 2.4 fold and 3.3 fold and 1.2 fold and 4.7 fold and 0.3 fold (2×) and 3.4 fold and 3.0 fold and 1.3 fold and 1.6 fold and 5.7 fold
same,Geometric Mean with ≥2-Fold-Activation,"[1]; 10, 100, or 1000 nM",4.4 fold
same,Range with ≥2-Fold-Activation,"[1]; 10, 100, or 1000 nM",2.2-20.1 fold
same,N with ≥2-Fold-Activation,"[1]; 10, 100, or 1000 nM",9 out of 12 and 9 of 12
same,Subjects with ≥2-Fold-Activation (%),[1]; Example 15 1000 nM,50%
same,"Fold HIV-1 Activation, Geometric Mean","[1]; Example 15 1000 nM, N = 6",2.1 fold
same,N with ≥2-Fold-Activation,[1]; Example 15 1000 nM,3 of 6
same,Fold HIV-1 Activation,"[1]; Example 15 1000 nM, one value per subject (IDs 205-210)",0.6 fold and 4.7 fold and 0.8 fold and 9.7 fold and 2.0 fold and 1.9 fold
same,B Cells CD69 Fold,B Cells; 10 nM vs DMSO,1.2 fold
same,B Cells CD80 Fold,B Cells; 10 nM vs DMSO,1.6 fold
same,B Cells CD69 %,B Cells; 10 nM,10.0%
same,B Cells CD80 %,B Cells; 10 nM,2.6%
same,B Cells CD69 Fold,B Cells; 100 nM vs DMSO,0.5 fold
same,B Cells CD80 Fold,B Cells; 100 nM vs DMSO,1.1 fold
same,B Cells CD69 %,B Cells; 100 nM,3.9%
same,B Cells CD80 %,B Cells; 100 nM,1.7%
same,B Cells CD69 Fold,B Cells; 1000 nM vs DMSO,1.1 fold
same,B Cells CD80 Fold,B Cells; 1000 nM vs DMSO,1.4 fold
same,B Cells CD69 %,B Cells; 1000 nM,9.1%
same,B Cells CD80 %,B Cells; 1000 nM,2.2%
same,B Cells CD69 Fold,B Cells; 3000 nM vs DMSO,1.7 fold
same,B Cells CD80 Fold,B Cells; 3000 nM vs DMSO,1.9 fold
same,B Cells CD80 %,B Cells; 3000 nM,3.0%
same,Concentration of maximal activation of B cells,B Cells; increased expression of CD69 and CD80,3000 nM
same,Monocytes CD11c Fold,"Monocytes; 10 nM vs DMSO, 2 days, N = 6",0.6 fold
same,Monocytes CD69 Fold,"Monocytes; 10 nM vs DMSO, 2 days, N = 6",0.3 fold
same,Monocytes CD80 Fold,"Monocytes; 10 nM vs DMSO, 2 days, N = 6",1.1 fold
same,Monocytes CD11c %,"Monocytes; 10 nM, 2 days, N = 6",0.4%
same,Monocytes CD69 %,"Monocytes; 10 nM, 2 days, N = 6",0.8%
same,Monocytes CD80 %,"Monocytes; 10 nM, 2 days, N = 6",33.0%
same,Monocytes CD11c Fold,"Monocytes; 100 nM vs DMSO, 2 days, N = 6",5.2 fold
same,Monocytes CD69 Fold,"Monocytes; 100 nM vs DMSO, 2 days, N = 6",0.6 fold
same,Monocytes CD80 Fold,"Monocytes; 100 nM vs DMSO, 2 days, N = 6",1.6 fold
same,Monocytes CD11c %,"Monocytes; 100 nM, 2 days, N = 6",3.6%
same,Monocytes CD69 %,"Monocytes; 100 nM, 2 days, N = 6",1.8%
same,Monocytes CD11c Fold,"Monocytes; 1000 nM vs DMSO, 2 days, N = 6",1.6 fold
same,Monocytes CD69 Fold,"Monocytes; 1000 nM vs DMSO, 2 days, N = 6",2.0 fold
same,Monocytes CD80 Fold,"Monocytes; 1000 nM vs DMSO, 2 days, N = 6",3.0 fold
same,Monocytes CD11c %,"Monocytes; 1000 nM, 2 days, N = 6",1.2%
same,Monocytes CD69 %,"Monocytes; 1000 nM, 2 days, N = 6",6.2%
same,Monocytes CD11c Fold,"Monocytes; 3000 nM vs DMSO, 2 days, N = 6",2.1 fold
same,Monocytes CD69 Fold,"Monocytes; 3000 nM vs DMSO, 2 days, N = 6",2.6 fold
same,Monocytes CD80 Fold,"Monocytes; 3000 nM vs DMSO, 2 days, N = 6",2.7 fold
same,Monocytes CD11c %,"Monocytes; 3000 nM, 2 days, N = 6",1.5%
same,Monocytes CD69 %,"Monocytes; 3000 nM, 2 days, N = 6",7.9%
same,Concentration of maximal activation of monocytes,Monocytes; increased expression of CD11c,100 nM
same,Concentration of maximal activation of monocytes,Monocytes; increased expression of CD69,3000 nM
same,Concentration of maximal activation of monocytes,Monocytes; increased expression of CD80,1000 nM
